# Tests used:
# [1] = Human liver microsome stability; type: in vitro ADME; conditions: human liver microsomes
# Protocol: The stability of the claimed compounds was determined in the presences of human liver microsomes. The compounds were incubated with the microsomes at 37° C. for 45 minutes. Samples were analyzed using LC-MS/MS. Data analysis included half-life, clearance rate, and the percentage of hepatic blood flow […] for each of the compounds in the different species.
# [2] = system: ARPE19/HPV16 (HPV Immortalized RPE); assay: Cell line screen, potency assay; type: cell-based; conditions: ARPE-19, AICDA expression Negative
# Protocol: Percent cell death and EC50 values were calculated by comparing the cell viability of the compound treated wells to the non-treated wells. Normalized RLU values were obtained by subtracting the media well values from each of the wells in the same column, and then dividing that value by the DMSO treated cells values. The percent kill was then calculated by subtracting the normalized RLU value from 1 and multiplying by 100. The average normalized percent kill value and standard error of the mean was then calculated. The kill values were then inputted into Prism with the corresponding standard errors. In Prism a non-linear regression line was plotted with the data points using a semi-log scale, and the EC50 value was calculated.
# The activity of the claimed compounds was measured in a variety of cell lines with different expression levels of activation induced cytidine deaminase (AICDA). The potency assay was repeated in all of the listed cell lines and the EC50 values recorded.
# [3] = Pharmacokinetic (PK) study, plasma by LC-MS; type: in vivo, rat; conditions: po @ 80 mg/kg
# Protocol: PK studies in mice were used to determine the fate of the compounds in a whole organism. Rats were treated with the compounds either orally of via IV at the indicated doses and followed for up to 24 hours. Plasma samples were taken at different time points and analyzed by LC-MS.
structure (smiles),measurement,setting,value
"CC(C)OC(=O)Nc1ccc(-c2cnc([C@H]3CC[C@H](NC(=O)OC(C)C)CC3)s2)c(S(=O)(=O)NC(C)(C)C)c1 [Ex. 67A, trans-isopropyl N-[3-(tert-butylsulfamoyl)-4-[2-[4-(isopropoxycarbonylamino)cyclohexyl]thiazol-5-yl]phenyl]carbamate]",% QH (percentage of hepatic blood flow),[1],<20.3%
same,EC50,[2],> 10 µM
same,F (%) @ 5 mg/kg,[3]; Rat Female,86.5%
same,F (%) @ 5 mg/kg,[3]; Rat Male,46.9%
